Experimental data taken from PubChem BioAssay AID2060618 (Molecular Pharmacology Branch, DTP, NCI, 2025).
Several values for one entry are separate records, joined by “and”; a condition that tells them apart may be missing. Equal entries are not always repeated.

Tested on: 454973-116-R2-J3-PDC spheroids, percent test/control viability
Test: Anticancer human tumor 454973-116-R2-J3-PDC patient-derived pancreatic carcinoma cell line growth inhibition [CLK]
Conditions: spheroids with HUVEC and MSC; for viability, T/C: stronger effect = lower value
Text: A high-throughput screen of multi-cell type tumor spheroids was designed to identify active combinations of […] and targeted small molecules. Complex spheroids include a stromal component modeled by human endothelial cells (HUVEC) and fibroblasts modeled by human mesenchymal stem cells (MSCs). The concentration ranges selected for each drug and investigational agent were based upon clinically achievable concentrations if the clinical Cmax of the agent was known.
Compounds. The drugs and investigational agents: cirtuvivint (SM08502; NSC835563), CC-671 (NSC850746), vemurafenib (NSC761431), tapotoclax (NSC804041), sotorasib (NSC818433), adagrasib (NSC831453), MRTX-1133 (NSC836407), BAY2416964 (NSC825713), copanlisib (NSC816437), inavolisib (NSC800729), abemaciclib (NSC768073), osimertinib (NSC779217), entinostat (NSC756642), eltanexor (KPT-8602, NSC794443), venetoclax (NSC766270), ceralasertib (NSC777638), bortezomib (NSC756655), olaparib (NSC753686), talazoparib (NSC767125), alisertib (NSC759677), peposertib (NSC802822), gemcitabine (NSC613327), 5-fluorouracil (NSC19893), SN-38 (NSC673596), oxaliplatin (NSC266046), paclitaxel (NSC125973), and doxorubicin (NSC123127), were obtained from the National Cancer Institute (NCI) Developmental Therapeutics Program Chemical Repository. The FDA-approved anticancer drug set is available from the Developmental Therapeutics Program at https://dtp.cancer.gov/organization/dscb/obtaining/available plates.htm. […] The stock solutions were prepared in dimethyl sulfoxide (DMSO, Sigma-Aldrich, St. Louis, MO, cat. D2650), except for the platinum complexes which were prepared in saline (Quality Biological, Gaithersburg, MD, cat. 114-055-101), at 800-fold the tested concentration and stored at -70 degrees C prior to their use. All drugs and investigational agents were tested over a range starting from a high concentration at or near the clinical Cmax and decreasing in half-log increments. If the clinical Cmax for an agent had not been determined, the highest concentration tested was 10 microM.
Cell Culture. All cells were maintained in an incubator at 37 degrees C and 5% CO2 with 95% humidity. The PDC lines were cultured according to standard operating procedures established by the NCI PDMR. Briefly, all PDCs were thawed and cultured in Matrigel-coated flasks prepared with a working solution of 1X Ham's F-12 nutrient mix, without supplementation (Invitrogen, Waltham, MA, cat. 11765054), 100 U/mL penicillin-streptomycin (Invitrogen, cat. 15140122), and 2.5% Matrigel (Corning Inc., Corning, NY, cat. 354248) for the first three passages. The 947758-054-R-J2-PDC line was cultured in 6B/Colon 1A media, which includes advanced DMEM/F-12 (Thermo Fisher Scientific, cat. 12634028), 10 mM HEPES (Thermo Fisher Scientific, cat. 15630080), 1X GlutaMAX supplement (Thermo Fisher Scientific, cat. 35050061), 0.1 mg/mL primocin (InvivoGen, cat. ant-pm-2), 10% defined fetal bovine serum, heat inactivated (HyClone Laboratories Inc., cat. SH30070.03HI), 1.25 mM N-Acetyl-L-cysteine (Sigma-Aldrich, cat. A9165), 10 mM nicotinamide (Sigma-Aldrich, cat. N0636), 1X B-27 supplement (Thermo Fisher Scientific, cat. 17504044), 1X N-2 supplement (Thermo Fisher Scientific, cat. 17502048), and 10 microM Y-27632 dihydrochloride (Tocris Bioscience, cat. 1254). The 876862-298-R-J1-PDC was cultured in 6E media, which includes all 6B/Colon 1A media components plus 50% L-WRN conditioned media (ATCC, cat. CRL-3276), 50 ng/mL recombinant human EGF recombinant protein (hEGF; Thermo Fisher Scientific, cat. PHG0311), 10 ng/mL recombinant human fibroblast growth factor 10 (hGFG-10; PeproTech, cat. 100-26), 1 ng/mL recombinant human fibroblast growth factor 2 (hFGF-2; PeproTech, cat. 100-18B), and 1 µM prostaglandin E2 (PGE2; Tocris, cat. 2296). The 227483-062-R1-J1-PDC line was cultured in Panc media, containing all 6E components except hFGF-2, with the addition of 500 nM SB-431542 (Selleckchem, cat. S1067) and 10 nM gastrin (Tocris, cat. 3006). […]
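Further: spheroids exposed to compounds for 7 days before readout.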

SMILES: C=C(F)C(=O)N1CCN(c2nc(OCC3CCCN3C)nc3c2CCN(c2cccc4cccc(Cl)c24)C3)CC1CC#N (centres undefined)
- viability, T/C (compound 0.0316 µM): 105% and 106%
- viability, T/C (compound 0.1 µM): 102% and 107%
- viability, T/C (compound 0.316 µM): 110% and 114%
- viability, T/C (compound 1 µM): 93.8% and 109%
- viability, T/C (compound 3.16 µM): 104% and 105%
- viability, T/C (compound 10 µM): 1.39% and 0.39%
- IC50 (curve of compound): 5770 nM and 5780 nM

SMILES: COc1c(OCCCN2CCOCC2)ccc2c3n(c(=NC(=O)c4cnc(N)nc4)nc12)CCN3 + CNC(=O)c1ccc(Nc2nc(OC3CCCC3)c3c(-c4ccc5nc(C)oc5c4)c[nH]c3n2)c(OC)c1
- IC50 (curve of first compound, second compound 0.0316 µM): 72.2 nM
- IC50 (curve of first compound, second compound 0.1 µM): 66.9 nM
- IC50 (curve of first compound, second compound 0.316 µM): 17.9 nM
- IC50 (curve of first compound, second compound 1 µM): < 3.16 nM
- IC50 (curve of first compound, second compound 3.16 µM): < 3.16 nM
- IC50 (curve of first compound, second compound 10 µM): < 3.16 nM
- viability, T/C (second compound 0.0316 µM, first compound 0.00316 µM): 99.8%
- viability, T/C (second compound 0.0316 µM, first compound 0.01 µM): 93%
- viability, T/C (second compound 0.0316 µM, first compound 0.0316 µM): 71.3%
- viability, T/C (second compound 0.0316 µM, first compound 0.1 µM): 39%
- viability, T/C (second compound 0.0316 µM, first compound 0.316 µM): 24.4%
- viability, T/C (second compound 0.0316 µM, first compound 1 µM): 8.47%
- viability, T/C (second compound 0.1 µM, first compound 0.00316 µM): 96.2%
- viability, T/C (second compound 0.1 µM, first compound 0.01 µM): 79.6%
- viability, T/C (second compound 0.1 µM, first compound 0.0316 µM): 70.5%
- viability, T/C (second compound 0.1 µM, first compound 0.1 µM): 37.5%
- viability, T/C (second compound 0.1 µM, first compound 0.316 µM): 24.2%
- viability, T/C (second compound 0.1 µM, first compound 1 µM): 8.81%
- viability, T/C (second compound 0.316 µM, first compound 0.00316 µM): 56.4%
- viability, T/C (second compound 0.316 µM, first compound 0.01 µM): 54.7%
- viability, T/C (second compound 0.316 µM, first compound 0.0316 µM): 47%
- viability, T/C (second compound 0.316 µM, first compound 0.1 µM): 26.1%
- viability, T/C (second compound 0.316 µM, first compound 0.316 µM): 17.5%
- viability, T/C (second compound 0.316 µM, first compound 1 µM): 7.41%
- viability, T/C (second compound 1 µM, first compound 0.00316 µM): 34.2%
- viability, T/C (second compound 1 µM, first compound 0.01 µM): 30.5%
- viability, T/C (second compound 1 µM, first compound 0.0316 µM): 22.2%
- viability, T/C (second compound 1 µM, first compound 0.1 µM): 13.1%
- viability, T/C (second compound 1 µM, first compound 0.316 µM): 8.12%
- viability, T/C (second compound 1 µM, first compound 1 µM): 4.63%
- viability, T/C (second compound 3.16 µM, first compound 0.00316 µM): 25.7%
- viability, T/C (second compound 3.16 µM, first compound 0.01 µM): 24.6%
- viability, T/C (second compound 3.16 µM, first compound 0.0316 µM): 21.1%
- viability, T/C (second compound 3.16 µM, first compound 0.1 µM): 14.8%
- viability, T/C (second compound 3.16 µM, first compound 0.316 µM): 7.11%
- viability, T/C (second compound 3.16 µM, first compound 1 µM): 5.46%
- viability, T/C (second compound 10 µM, first compound 0.00316 µM): 24.2%
- viability, T/C (second compound 10 µM, first compound 0.01 µM): 22%
- viability, T/C (second compound 10 µM, first compound 0.0316 µM): 17.8%
- viability, T/C (second compound 10 µM, first compound 0.1 µM): 13.3%
- viability, T/C (second compound 10 µM, first compound 0.316 µM): 8.89%
- viability, T/C (second compound 10 µM, first compound 1 µM): 3.02%
